Activity and IC50 data for two compounds are collected here from ChEMBL document CHEMBL1158203, “A novel monogalactosylacylglycerol with inhibitory effect on platelet aggregation from the cyanophyceae Oscillatoria rosea” (J Nat Prod, 1996).

The structures appear in SMILES notation. Active and inactive are the calls of the source. The calls are words filed in the database; no cut-off is given here. Where only a bound is given, the exact number is not on record here.

The subject of assay [1] is Platelet. In words: Inhibition of U46619-induced platelet aggregation in rabbit platelet-rich plasma at 100 ug/mL by turbidimetric method. It is filed as functional, cell-free. To be noted: Oryctolagus cuniculus.
The test system of assay [2] is Platelet. Put plainly: Inhibition of ionomycin-induced platelet aggregation in rabbit platelet-rich plasma at 100 ug/mL by turbidimetric method. It is filed as functional, cell-free. To be noted: Oryctolagus cuniculus.
For assay [3], the system named is Platelet. In words: Inhibition of thrombin-induced platelet aggregation in rabbit platelet-rich plasma at 100 ug/mL by turbidimetric method. The settings on record: Oryctolagus cuniculus. It is filed as functional, cell-free.
Assay [4] has as its system P388. Put plainly: Cytotoxicity against mouse P388 cells by MTT assay. It is filed as functional. (In general: Tetrazolium assays rely on reduction of a dye to a coloured formazan, in cell work by metabolically active cells.)
Assay [5] has as its system Platelet. Put plainly: Inhibition of U46619-induced platelet aggregation in rabbit platelet-rich plasma by turbidimetric method. It counts as functional, cell-free. To be noted: Oryctolagus cuniculus.

With `CCCCCCCCCCCCCC(=O)OC[C@@H](O)COP(=O)([O-])OCC[N+](C)(C)C`, the outcome in assay [1], in assay [2] and in assay [3] was Active.
As for `CCCCCCCCCCCCCCCC(=O)OC[C@@H](O)CO[C@@H]1O[C@H](CO)[C@H](O)[C@H](O)C1O` (single isomer, unassigned), in assay [1], the outcome was Active. In addition, the result in assay [2] and in assay [3] was inactive. In assay [4], the Activity was >50 µg/mL. For the same compound, half-maximal inhibition in assay [5] (IC50) was put at 60 µM.

By IC50 is commonly meant the point on the concentration scale where inhibition reaches its midpoint. Read a low IC50 as greater potency in that assay.
